“And” between values parts separate entries of the source, which are not always exact repeats. Equal entries are not always repeated. No end group written: not given here.
Tests used:
α-glucosidase = settings: peptide from ovalbumin; ref Yu et al. [2012]; read-out: α-glucosidase inhibitory activity IC50; cited from earlier work
[1] = target: T1, ACE (EC 3.4.15.1; from rabbit lung) (Oryctolagus cuniculus, UniProt P12822); assay: ACE inhibitory activity (HHL substrate, spectrophotometric); format: biochemical; settings: synthetic peptides; mean n = 3; read-out: Enzyme inhibitory activity (IC50) ACE (converted)
T1 construct: The ACE (EC 3.4.15.1; from rabbit lung, Sigma, A6778); purchased Sigma A6778; host or cells: rabbit lung tissue
T1 sequence (P12822 34-1310): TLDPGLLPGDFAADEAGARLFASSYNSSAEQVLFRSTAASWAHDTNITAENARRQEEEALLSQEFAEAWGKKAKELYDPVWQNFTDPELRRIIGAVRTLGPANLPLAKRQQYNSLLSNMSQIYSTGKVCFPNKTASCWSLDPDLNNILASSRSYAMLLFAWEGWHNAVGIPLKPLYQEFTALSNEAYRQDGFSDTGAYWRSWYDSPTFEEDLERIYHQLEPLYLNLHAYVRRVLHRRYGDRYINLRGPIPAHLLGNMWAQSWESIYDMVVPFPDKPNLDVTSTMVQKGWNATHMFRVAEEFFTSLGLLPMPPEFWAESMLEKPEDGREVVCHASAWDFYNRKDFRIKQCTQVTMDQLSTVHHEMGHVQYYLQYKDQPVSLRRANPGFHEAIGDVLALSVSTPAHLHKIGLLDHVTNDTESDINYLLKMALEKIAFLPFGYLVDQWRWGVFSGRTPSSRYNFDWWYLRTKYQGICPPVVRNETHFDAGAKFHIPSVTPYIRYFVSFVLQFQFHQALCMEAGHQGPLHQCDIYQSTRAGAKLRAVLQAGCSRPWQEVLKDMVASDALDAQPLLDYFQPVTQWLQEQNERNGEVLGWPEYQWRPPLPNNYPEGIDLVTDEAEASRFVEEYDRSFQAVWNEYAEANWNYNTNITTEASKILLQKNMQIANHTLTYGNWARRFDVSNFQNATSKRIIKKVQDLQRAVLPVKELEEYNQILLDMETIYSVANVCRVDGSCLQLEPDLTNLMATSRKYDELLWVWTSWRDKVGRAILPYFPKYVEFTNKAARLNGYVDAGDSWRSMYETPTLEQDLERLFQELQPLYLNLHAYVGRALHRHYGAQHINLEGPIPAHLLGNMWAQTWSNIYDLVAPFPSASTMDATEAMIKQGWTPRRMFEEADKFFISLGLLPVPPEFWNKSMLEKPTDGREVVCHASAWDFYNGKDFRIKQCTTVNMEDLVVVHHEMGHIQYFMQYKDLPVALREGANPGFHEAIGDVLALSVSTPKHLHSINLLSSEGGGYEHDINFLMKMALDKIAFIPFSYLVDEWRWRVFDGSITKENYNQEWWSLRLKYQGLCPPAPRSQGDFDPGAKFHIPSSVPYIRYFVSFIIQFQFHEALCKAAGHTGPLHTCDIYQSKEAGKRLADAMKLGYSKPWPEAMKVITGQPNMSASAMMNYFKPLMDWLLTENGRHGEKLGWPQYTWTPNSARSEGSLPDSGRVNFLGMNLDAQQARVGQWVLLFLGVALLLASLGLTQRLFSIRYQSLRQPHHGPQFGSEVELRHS
Description: The ACE (EC 3.4.15.1; from rabbit lung, Sigma, A6778) inhibitory activity of hydrolysate and peptide fractions was measured spectrophotometrically according to Miguel et al. ([2004]). A hydrolysate solution (40 µL) mixed with a Hippuryl-His-Leu (HHL) (Sigma H4884) solution (5 mM in 100 mM potassium phosphate containing 300 mM sodium chloride, pH 8.3) as substrate was preincubated at 37 °C for 5 min, and the reaction was initiated by adding 20 µL (2 mU) of ACE solution and incubating for 30 min at the same temperature. The enzymatic reaction was halted by the addition of 150 µL of 1 M HCl. The liberated hippuric acid was extracted using 1 mL of ethyl acetate and vigorous shaking, after which 750 µL of the upper layer was transferred into a test tube and evaporated in a vacuum. The hippuric acid left in the tubes was re-dissolved in 800 µL of distilled water and the absorbance was measured at λ = 228 nm. All samples were tested in three replications. The inhibition activity was calculated using the following equation:
Inhibition activity (%) = [(A − B)/A] × 100 %
where A is the reaction blank, of which the mixture contained the same volume of the buffer solution instead of the ACE inhibitor sample; B is the reaction in the presence of both ACE and its inhibitor. The IC50 value was estimated from a dose–response curve of an inhibitor versus the ACE activity.

[2] = target: α-Glucosidase from Saccharomyces cerevisiae (Saccharomyces cerevisiae, UniProt P53341); assay: α-Glucosidase inhibitory activity (pNPG substrate); format: biochemical; settings: synthetic peptides, mean n = 3; for IC50: read-out: Enzyme inhibitory activity (IC50) α-Glucosidase (converted)
Description: The α-glucosidase inhibition assay was performed according to the method of Yu et al. ([2011]). α-Glucosidase from Saccharomyces cerevisiae (Sigma G0660) hydrolyzes the substrate—p-nitrophenyl glucopyranoside (pNPG) (Sigma N1377) and the thus produced p-nitrophenol can be measured spectrophotometrically. 5 µL of the α-glucosidase solution (10 U/mL, in 0.1 M potassium phosphate buffer, pH 6.8) was premixed with 10 µL of the sample solution at different concentrations (in 10 % DMSO) in 620 µL of 0.1 M potassium phosphate buffer (pH 6.8). Following incubation at 37.5 °C for 20 min, 10 µL of p-nitrophenyl glucopyranoside (pNPG 10 mM) as substrate was added to the mixture to start the reaction and was then incubated at 37.5 °C for 30 min, followed by addition of 650 µL of 1 M Na2CO3 solution to terminate the reaction. The amount of released product (p-nitrophenol) was measured at λ = 410 nm. The IC50 value was defined as the concentration of inhibitor required to inhibit 50 % of α-glucosidase activity under assay conditions.

[3] = target: T2, DPP-4 from porcine kidney (Sus scrofa, UniProt P22411); assay: Dipeptidyl peptidase-4 (DPP-4) inhibitory activity (Gly-Pro-p-nitroanilide); format: biochemical; settings: synthetic peptides, mean n = 3; for IC50: read-out: Enzyme inhibitory activity (IC50) DPP-4 (converted)
T2 construct: DPP-4 from porcine kidney was purchased from Sigma (D7052); purchased Sigma D7052; host or cells: porcine kidney tissue
Description: DPP-4 inhibitory activity (IC50) was determined using a modified method of Lacroix and Li-Chan (2013). DPP-4 from porcine kidney was purchased from Sigma (D7052). The lyophilized peptide fractions were re-suspended in 0.1 M Tris–HCl buffer, pH 8.0. The test sample (25 μL) was preincubated with an equal volume of the substrate Gly-Pro-p-nitroanilide (1.6 mM) at 37 °C for 10 min. Afterwards, 50 μL of DPP-4 (0.01 U/mL, in 0.1 M Tris–HCl buffer, pH 8.0) was added and the mixture was incubated at 37 °C for 60 min. The reaction was stopped by the addition of 100 μL of 1 M sodium acetate buffer, pH 4.0. The released p-nitroanilide as a hydrolysis product was measured at λ = 405 nm.
The IC50 value was defined as the concentration of inhibitor required to inhibit 50 % of DPP-4 activity under assay conditions.

[4] = Antioxidant activity as ability to scavenge DPPH free radicals; settings: synthetic peptides; mean n = 3
Description: The antioxidant activity of the obtained hydrolysates was assessed on the basis of the radical scavenging effect of the stable 1,1-diphenyl-2-picrylhydrazyl [DPPH (Sigma, D21140-0)]—free radical activity according to Yen and Chen ([1995]), with minor modifications. The tested samples were dissolved in water to a final volume of 1 mL and mixed with 1 mL of ethanol (98 %). The reaction was started by adding 0.5 mL of […] DPPH in ethanol. The mixtures were left for 30 min at room temperature and the absorbance of the resulting solutions was measured at 517 nm. For calibration, aqueous solutions of known Trolox concentrations ranging from 2 to 20 μg (able to scavenge 500 μL of 0.3 mM DPPH radical solution) were used. Radical scavenging activity of the peptides was expressed as µM troloxeq/mg protein.

[5] = FRAP method (ferric reducing antioxidant power); settings: synthetic peptides; mean n = 3
Description: The ferric reducing antioxidant power (FRAP) method was used to determine the antioxidative capacity of hydrolysates according to Benzie and Strain ([1996]). 3 mL of FRAP working solution [300 mM acetate buffer pH 3.6; 10 mM 2,4,6,tripyridyl-s-triazine (TPTZ) (Fluka, 93285) and 20 mM FeCl3 × 6 H2O (10:1:1 v/v)] was mixed with 1 mL of the sample. After 10 min of reaction, the absorbance was measured at λ = 593 nm. An aqueous solution of known Fe(II) concentration was used for calibration (in the range from 100 to 1,000 μg). Results were expressed as μg Fe^2+/mg protein.

[6] = Fe(II) ion chelation (ferrozine); settings: synthetic peptides; mean n = 3
Description: Chelation of iron ions by hydrolysates was estimated by the method of Xu et al. ([2007]) with modifications. A 250 μL sample was mixed with 1,250 μL H2O and 110 μL 1 mM FeCl2. After 2 min, 1 mL of 500 μM ferrozine (Sigma 160601) aqueous solution was added and the mixture was allowed to react for 10 min. The absorbance of ferrous iron–ferrozine complex was measured spectrophotometrically at λ = 562 nm. A known concentration of FeCl2 (0–20 μg) was used to generate a standard curve and the ability to chelate iron ions was expressed as μg Fe^2+/mg protein.

α-Glucosidase from Saccharomyces cerevisiae, sequence (P53341 whole entry): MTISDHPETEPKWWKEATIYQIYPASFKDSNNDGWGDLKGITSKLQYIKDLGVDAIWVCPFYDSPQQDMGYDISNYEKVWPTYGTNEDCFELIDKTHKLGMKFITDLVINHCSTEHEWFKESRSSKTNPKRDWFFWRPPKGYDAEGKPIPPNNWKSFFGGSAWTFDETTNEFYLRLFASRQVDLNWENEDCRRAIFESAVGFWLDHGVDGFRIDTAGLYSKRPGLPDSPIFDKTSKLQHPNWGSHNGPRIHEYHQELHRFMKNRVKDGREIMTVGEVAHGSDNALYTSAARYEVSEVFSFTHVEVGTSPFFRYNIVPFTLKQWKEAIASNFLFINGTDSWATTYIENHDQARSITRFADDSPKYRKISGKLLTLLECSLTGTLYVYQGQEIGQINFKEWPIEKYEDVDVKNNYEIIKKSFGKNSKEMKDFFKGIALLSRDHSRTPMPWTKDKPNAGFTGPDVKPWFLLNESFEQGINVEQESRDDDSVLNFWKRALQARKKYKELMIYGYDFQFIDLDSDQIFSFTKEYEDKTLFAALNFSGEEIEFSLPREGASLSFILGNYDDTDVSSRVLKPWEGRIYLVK
T2 sequence (P22411 whole entry): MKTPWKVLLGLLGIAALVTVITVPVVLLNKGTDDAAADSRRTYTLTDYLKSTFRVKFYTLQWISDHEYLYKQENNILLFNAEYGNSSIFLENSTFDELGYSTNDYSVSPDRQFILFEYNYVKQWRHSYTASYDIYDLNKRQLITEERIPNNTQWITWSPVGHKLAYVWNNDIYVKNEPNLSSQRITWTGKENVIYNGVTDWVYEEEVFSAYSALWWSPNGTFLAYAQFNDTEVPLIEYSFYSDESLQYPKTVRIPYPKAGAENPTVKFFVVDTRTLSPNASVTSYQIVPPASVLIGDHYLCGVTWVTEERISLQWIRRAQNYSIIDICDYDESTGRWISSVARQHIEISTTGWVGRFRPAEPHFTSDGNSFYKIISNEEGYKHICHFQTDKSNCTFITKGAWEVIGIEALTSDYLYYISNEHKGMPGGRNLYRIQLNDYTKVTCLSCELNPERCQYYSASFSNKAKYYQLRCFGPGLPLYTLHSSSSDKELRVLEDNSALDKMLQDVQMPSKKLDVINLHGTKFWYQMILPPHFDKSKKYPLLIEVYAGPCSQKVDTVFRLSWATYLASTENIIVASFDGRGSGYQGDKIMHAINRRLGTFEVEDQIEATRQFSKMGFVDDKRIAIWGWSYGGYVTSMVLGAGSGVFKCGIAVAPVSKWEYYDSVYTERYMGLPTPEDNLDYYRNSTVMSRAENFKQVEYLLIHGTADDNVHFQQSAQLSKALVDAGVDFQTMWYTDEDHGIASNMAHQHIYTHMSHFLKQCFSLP

Row | Substance | IC50 (α-glucosidase) [µM] | IC50 [1] [µM] | IC50 [2] [µM] | IC50 [3] [µM] | Antioxidant activity DPPH [4] | Antioxidant activity FRAP [5] | Antioxidant activity CHEL. [6] [b µg Fe^2+/mg] | Enzyme inhibitory activity (IC50) α-Glucosidase [2] | Enzyme inhibitory activity (IC50) DPP-4 [3]
1 | KLPGF | 59.5 | – | – | – | – | – | – | – | –
2 | VTGRFAGHPAAQ [VTGRFAGHPAAQ] | – | 22.5 | 302 | 1160 | – | – | – | – | –
3 | YIEAVNKVSPRAGQF-OH [YIEAVNKVSPRAGQF] | – | 5.6 | – | – | 2.2 µM Troloxeq/mg and 2.2c µM Troloxeq/mg | 61.0 µg Fe^2+/mg and 61.0b µg Fe^2+/mg | 25.2 | no impact | no impact
4 | YINQMPQKSRE [YINQMPQKSRE] | – | 7.25 | 1220 | 160 | – | – | – | – | –
5 | YINQMPQKSREA [YINQMPQKSREA] | – | 8.6 | 310 | 243 | – | – | – | – | –
